This series relates to CCRIS mutagenicity, Ames/micronucleus/aberration tests. In words: CCRIS mutagenicity studies.
Setting [1] is: Test System: AMES SALMONELLA TYPHIMURIUM, Strain/Indicator: TA100, Metabolic Activation: NONE, Method: PREINCUBATION
Where [2] appears, read: Test System: AMES SALMONELLA TYPHIMURIUM, Strain/Indicator: TA100, Metabolic Activation: NONE, Method: STANDARD PLATE.
Where [3] appears, read: Test System: AMES SALMONELLA TYPHIMURIUM, Strain/Indicator: TA1535, Metabolic Activation: HAMSTER, LIVER, S-9, AROCLOR 1254 (10%), Method: PREINCUBATION
Where [4] appears, read: Test System: AMES SALMONELLA TYPHIMURIUM, Strain/Indicator: TA1535, Metabolic Activation: NONE, Method: PREINCUBATION
Setting [5] is: Test System: AMES SALMONELLA TYPHIMURIUM, Strain/Indicator: TA1535, Metabolic Activation: RAT, LIVER, S-9, AROCLOR 1254 (10%), Method: PREINCUBATION
[6] abbreviates: Test System: AMES SALMONELLA TYPHIMURIUM, Strain/Indicator: TA98, Metabolic Activation: NONE, Method: PREINCUBATION

Active and inactive are the calls of the source. How the calls were made is not given here.

Regarding `CCC(C)[N+](=O)[O-]` (stereo not drawn), the mutagenic call under setting [1] was “inactive; negative”; the mutagenic call (Test System: AMES SALMONELLA TYPHIMURIUM, Strain/Indicator: TA100, Metabolic Activation: RAT, LIVER, S-9, AROCLOR, Method: PREINCUBATION) was “inactive; negative”; the mutagenic call (Test System: AMES SALMONELLA TYPHIMURIUM, Strain/Indicator: TA102, Metabolic Activation: NONE, Method: PREINCUBATION) was “inactive; negative”; the mutagenic call (Test System: AMES SALMONELLA TYPHIMURIUM, Strain/Indicator: TA102, Metabolic Activation: RAT, LIVER, S-9, AROCLOR, Method: PREINCUBATION) was “inactive; negative”; the mutagenic call (Test System: E. COLI, Strain/Indicator: WP2 UVRA (PKM101), Metabolic Activation: NONE, Method: PREINCUBATION) is “active; positive”; the mutagenic call (Test System: E. COLI, Strain/Indicator: WP2 UVRA (PKM101), Metabolic Activation: RAT, LIVER, S-9, KANECHLOR 1254, Method: PREINCUBATION) was “active; positive”. The mutagenic call (Test System: UDS RAT HEPATOCYTES, Strain/Indicator: THY INCORP, Metabolic Activation: NONE) is “active; positive”.

For `Cc1ccc(S(=O)(=O)OCc2ccc([N+](=O)[O-])cc2)cc1`, the mutagenic call under setting [2] is “active; positive”.

Turning to `c1ccc2sc(SSc3nc4ccccc4s3)nc2c1`, the mutagenic call runs as follows: (Test System: AMES SALMONELLA TYPHIMURIUM, Strain/Indicator: TA97, Metabolic Activation: HAMSTER, LIVER, S-9, AROCLOR 1254 (10%), Method: PREINCUBATION) “inactive; negative”; (Test System: AMES SALMONELLA TYPHIMURIUM, Strain/Indicator: TA97, Metabolic Activation: NONE, Method: PREINCUBATION) “active; positive”; (Test System: AMES SALMONELLA TYPHIMURIUM, Strain/Indicator: TA97, Metabolic Activation: RAT, LIVER, S-9, AROCLOR 1254 (10%), Method: PREINCUBATION) “inactive; negative”; (Test System: AMES SALMONELLA TYPHIMURIUM, Strain/Indicator: TA98, Metabolic Activation: HAMSTER, LIVER, S-9, AROCLOR 1254 (10 OR 30%), Method: PREINCUBATION) “inactive; negative”; (Test System: AMES SALMONELLA TYPHIMURIUM, Strain/Indicator: TA98, Metabolic Activation: RAT, LIVER, S-9, AROCLOR 1254 (10 OR 30%), Method: PREINCUBATION) “inactive; negative”; (Test System: AMES SALMONELLA TYPHIMURIUM, Strain/Indicator: TA100, Metabolic Activation: HAMSTER, LIVER, S-9, AROCLOR 1254 (10 OR 30%), Method: PREINCUBATION) “inactive; negative”. The mutagenic call under setting [1] is “inactive; negative”; the mutagenic call (Test System: AMES SALMONELLA TYPHIMURIUM, Strain/Indicator: TA100, Metabolic Activation: RAT, LIVER, S-9, AROCLOR 1254 (10 OR 30%), Method: PREINCUBATION) is “active; positive”; the mutagenic call under setting [3] is “inactive; negative”; the mutagenic call under setting [4] was “inactive; negative”; the mutagenic call under setting [5] is “inactive; negative”.

Turning to `O=C1NC(=O)C(Cl)C1=C(Cl)Cl` (stereo not drawn), the mutagenic call under setting [2] is “active; positive”.

Take `CC(C)CC(=O)CC(C)C`: the mutagenic call by setting is: (Test System: AMES SALMONELLA TYPHIMURIUM, Strain/Indicator: TA98, Metabolic Activation: HAMSTER, LIVER, S-9, AROCLOR 1254 (10%), Method: PREINCUBATION) “inactive; negative”; under setting [6], “inactive; negative”; (Test System: AMES SALMONELLA TYPHIMURIUM, Strain/Indicator: TA98, Metabolic Activation: RAT, LIVER, S-9, AROCLOR 1254 (10%), Method: PREINCUBATION) “inactive; negative”; (Test System: AMES SALMONELLA TYPHIMURIUM, Strain/Indicator: TA100, Metabolic Activation: HAMSTER, LIVER, S-9, AROCLOR 1254 (10%), Method: PREINCUBATION) “inactive; negative”; under setting [1], “inactive; negative”; (Test System: AMES SALMONELLA TYPHIMURIUM, Strain/Indicator: TA100, Metabolic Activation: RAT, LIVER, S-9, AROCLOR 1254 (10%), Method: PREINCUBATION) “inactive; negative”. In addition, the mutagenic call is, setting by setting: under setting [3], “inactive; negative”; (Test System: AMES SALMONELLA TYPHIMURIUM, Strain/Indicator: TA1535, Metabolic Activation: HAMSTER, LIVER, S-9, AROCLOR 1254 (50%), Method: PREINCUBATION) “inactive; negative”; under setting [4], “inactive; negative”; under setting [5], “inactive; negative”; (Test System: AMES SALMONELLA TYPHIMURIUM, Strain/Indicator: TA1535, Metabolic Activation: RAT, LIVER, S-9, AROCLOR 1254 (50%), Method: PREINCUBATION) “inactive; negative”; (Test System: AMES SALMONELLA TYPHIMURIUM, Strain/Indicator: TA1537, Metabolic Activation: HAMSTER, LIVER, S-9, AROCLOR 1254 (10%), Method: PREINCUBATION) “inactive; negative”. The mutagenic call (Test System: AMES SALMONELLA TYPHIMURIUM, Strain/Indicator: TA1537, Metabolic Activation: HAMSTER, LIVER, S-9, AROCLOR 1254 (50%), Method: PREINCUBATION) was “inactive; negative”; the mutagenic call (Test System: AMES SALMONELLA TYPHIMURIUM, Strain/Indicator: TA1537, Metabolic Activation: NONE, Method: PREINCUBATION) is “inactive; negative”; the mutagenic call (Test System: AMES SALMONELLA TYPHIMURIUM, Strain/Indicator: TA1537, Metabolic Activation: RAT, LIVER, S-9, AROCLOR 1254 (10%), Method: PREINCUBATION) was “inactive; negative”; the mutagenic call (Test System: AMES SALMONELLA TYPHIMURIUM, Strain/Indicator: TA1537, Metabolic Activation: RAT, LIVER, S-9, AROCLOR 1254 (50%), Method: PREINCUBATION) is “inactive; negative”.

Take `Cc1c(N)nc([C@H](CC(N)=O)NC[C@H](N)C(N)=O)nc1C(=O)N[C@H](C(=O)N[C@H](C)[C@@H](O)[C@H](C)C(=O)N[C@H](C(=O)NCCc1nc(-c2nc(C(=O)NCCCN[C@@H](C)c3ccccc3)cs2)cs1)[C@@H](C)O)[C@@H](O[C@@H]1O[C@@H](CO)[C@@H](O)[C@H](O)[C@@H]1O[C@H]1O[C@H](CO)[C@@H](O)[C@H](OC(N)=O)[C@@H]1O)c1cnc[nH]1`: the mutagenic call was “active; positive” (Test System: AMES SALMONELLA TYPHIMURIUM, Strain/Indicator: TA102, Metabolic Activation: NONE, Method: STANDARD PLATE) and “inactive; negative” (Test System: AMES SALMONELLA TYPHIMURIUM, Strain/Indicator: TA1537, Metabolic Activation: NONE, Method: STANDARD PLATE).

Take `O=C(CBr)c1ccc(Br)cc1`: the mutagenic call was “inactive; negative” under setting [6]; “inactive; negative” (Test System: AMES SALMONELLA TYPHIMURIUM, Strain/Indicator: TA98, Metabolic Activation: RAT, LIVER, S-9, PCB, Method: PREINCUBATION); “inactive; negative” under setting [1]; “inactive; negative” (Test System: AMES SALMONELLA TYPHIMURIUM, Strain/Indicator: TA100, Metabolic Activation: RAT, LIVER, S-9, PCB, Method: PREINCUBATION); “inactive; negative” (Test System: E. COLI, Strain/Indicator: WP2 UVRA, Metabolic Activation: NONE, Method: PREINCUBATION).

Values taken from PubChem BioAssay AID1259407 (Chemical Carcinogenesis Research Information System (CCRIS), 2018).
